We go through 3 compounds from patent US20240174727A1, “LONG-ACTING NATRIURETIC PEPTIDES AND USES THEREOF” (Eli Lilly and Company, priority 2022, published 2024).

Numbered stars: 1 amine (or outer) side, 2 acyl side, 3 side chain; on linkers, the order of the positions; unused ones are H or OH. Bridge positions count the residues as written; N and C are the ends. Square brackets hold non-standard residues; d marks the D form. * marks the point of attachment. PEG24 = NCCOCCOCCOCCOCCOCCOCCOCCOCCOCCOCCOCCOCCOCCOCCOCCOCCOCCOCCOCCOCCOCCOCCOCCOCCC(=O)O; C20 diacid = O=C(O)CCCCCCCCCCCCCCCCCCC(=O)*; γGlu = O=C(O)[C@H](CCC(=O)[*:2])N[*:1]; 4Pal = N[C@@H](Cc1ccncc1)C(=O)O; CH2 = C([*:1])[*:2]

Data set [1] can be described thus: Pharmacokinetics in male Sprague Dawley rats. In kind it is in vivo. Particulars: rat, sc, mean, single subcutaneous administration of 200 nMol/kg, plasma; for half-life: read-out: t½ (converted). The method in brief: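 Male Sprague Dawley rats received a single subcutaneous dose of […], with blood sampled over 120 hours. Intact peptide in K3 EDTA plasma was measured by qualified high-resolution LC/MS after methanol/0.1% formic acid extraction with an analog internal standard; PK parameters from individual plasma concentrations.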

Another data set relates to plasma cGMP. As to the kind of experiment: In vivo monkey studies, plasma cGMP ELISA. Further details: species or system male cynomolgus monkeys. Particulars: for Net cGMP (nM) Change from Baseline 0.083 h / Net cGMP (nM) Change from Baseline 0.25 h / Net cGMP (nM) Change from Baseline 0.5 h / Net cGMP (nM) Change from Baseline 1 h / Net cGMP (nM) Change from Baseline 2 h / Net cGMP (nM) Change from Baseline 4 h / Net cGMP (nM) Change from Baseline 8 h / Net cGMP (nM) Change from Baseline 12 h / Net cGMP (nM) Change from Baseline 24 h / Net cGMP (nM) Change from Baseline 36 h / Net cGMP (nM) Change from Baseline 48 h / Net cGMP (nM) Change from Baseline 72 h / Net cGMP (nM) Change from Baseline 96 h / Net cGMP (nM) Change from Baseline 120 h / Net cGMP (nM) Change from Baseline 144 h / Net cGMP (nM) Change from Baseline 168 h: dose 100 nmol/kg, monkey plasma; for Net cGMP (nM) Change from Baseline 0.083 h: 0.083 h postdose; for Net cGMP (nM) Change from Baseline 0.25 h: 0.25 h postdose; for Net cGMP (nM) Change from Baseline 0.5 h: 0.5 h postdose; for Net cGMP (nM) Change from Baseline 1 h: 1 h postdose; for Net cGMP (nM) Change from Baseline 2 h: 2 h postdose; for Net cGMP (nM) Change from Baseline 4 h: 4 h postdose; for Net cGMP (nM) Change from Baseline 8 h: 8 h postdose; for Net cGMP (nM) Change from Baseline 12 h: 12 h postdose; for Net cGMP (nM) Change from Baseline 24 h: 24 h postdose; for Net cGMP (nM) Change from Baseline 36 h: 36 h postdose; for Net cGMP (nM) Change from Baseline 48 h: 48 h postdose; for Net cGMP (nM) Change from Baseline 72 h: 72 h postdose; for Net cGMP (nM) Change from Baseline 96 h: 96 h postdose; for Net cGMP (nM) Change from Baseline 120 h: 120 h postdose; for Net cGMP (nM) Change from Baseline 144 h: 144 h postdose; for Net cGMP (nM) Change from Baseline 168 h: 168 h postdose; for net cGMP levels (result in words): monkeys, single SC dose, plasma. The method in brief: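 Male cynomolgus monkeys received one SC dose; plasma taken predose and at set timepoints. cGMP measured by competitive ELISA on acetylated 1:20-diluted plasma (405 nm), interpolated from 4-parameter standard curve; net change (nM) = value minus each animal's predose level.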
Background: An ELISA detects its analyte on a solid surface through an enzyme-linked reagent.

By CL/F is commonly meant the apparent clearance, not corrected for the fraction that reaches the circulation. With “{C20 diacid-γGlu}-EKEKEKG[PEG24]S[4Pal]RRSSCFGGRIDRIGHQSGLGCPSFRHGGPSSGAPPPS-NH2 (linker 15-31 via CH2) [Example 61]”, in data set [1], the apparent clearance CL/F was 1.08 mL/min/kg and the half-life is 6 h. In addition, in the data set on plasma cGMP, the “Net cGMP (nM) Change from Baseline 0.083 h” value was found to be 4.41 nM, the “Net cGMP (nM) Change from Baseline 0.25 h” value worked out at 24.85 nM, the “Net cGMP (nM) Change from Baseline 0.5 h” value was 27.32 nM and the “Net cGMP (nM) Change from Baseline 1 h” value was found to be 28.35 nM. Further, in the data set on plasma cGMP, the “Net cGMP (nM) Change from Baseline 2 h” value stood at 25.21 nM, the “Net cGMP (nM) Change from Baseline 4 h” value is 28.38 nM, the “Net cGMP (nM) Change from Baseline 8 h” value turned out to be 33.73 nM and the “Net cGMP (nM) Change from Baseline 12 h” value was 23.51 nM. Also, in the data set on plasma cGMP, the “Net cGMP (nM) Change from Baseline 24 h” value is 27.96 nM, the “Net cGMP (nM) Change from Baseline 36 h” value worked out at 24.75 nM, the “Net cGMP (nM) Change from Baseline 48 h” value worked out at 11.81 nM and the “Net cGMP (nM) Change from Baseline 72 h” value was determined as 14.82 nM. Moreover, in the data set with plasma cGMP, the “Net cGMP (nM) Change from Baseline 96 h” value amounted to 20.25 nM, the “Net cGMP (nM) Change from Baseline 120 h” value was 12.15 nM, the “Net cGMP (nM) Change from Baseline 144 h” value was 18 nM and the “Net cGMP (nM) Change from Baseline 168 h” value is given as 11.81 nM. Moreover, the “net cGMP levels (result in words)” value in the data set on plasma cGMP was “increased net cGMP levels”.

For the compound “{C20 diacid-γGlu}-EKEKEKGS[4Pal]RRSSCFGGRIGRIGHQSGLGCPSFRHGGPSSGAPPPS-NH2 (disulfide 14-30) [Example 29]”, in data set [1], the CL/F is 0.545 mL/min/kg and the half-life is 12 h. In the data set with plasma cGMP, the “Net cGMP (nM) Change from Baseline 0.083 h” value came out at 2.13 nM, the “Net cGMP (nM) Change from Baseline 0.25 h” value is given as 3.52 nM, the “Net cGMP (nM) Change from Baseline 0.5 h” value is 9.03 nM and the “Net cGMP (nM) Change from Baseline 1 h” value came to 10.14 nM. For the same compound, in the data set with plasma cGMP, the “Net cGMP (nM) Change from Baseline 2 h” value turned out to be 15.28 nM, the “Net cGMP (nM) Change from Baseline 4 h” value is recorded as 17.75 nM, the “Net cGMP (nM) Change from Baseline 8 h” value is 26.8 nM and the “Net cGMP (nM) Change from Baseline 12 h” value came to 28.52 nM. Further, in the data set on plasma cGMP, the “Net cGMP (nM) Change from Baseline 24 h” value was 31.75 nM, the “Net cGMP (nM) Change from Baseline 36 h” value was found to be 32.52 nM, the “Net cGMP (nM) Change from Baseline 48 h” value came to 21.75 nM and the “Net cGMP (nM) Change from Baseline 72 h” value is 12.46 nM. Moreover, in the data set with plasma cGMP, the “Net cGMP (nM) Change from Baseline 96 h” value is given as 12.31 nM, the “Net cGMP (nM) Change from Baseline 120 h” value came to 8.52 nM, the “Net cGMP (nM) Change from Baseline 144 h” value amounted to 8.28 nM and the “Net cGMP (nM) Change from Baseline 168 h” value stood at 4.1 nM. The “net cGMP levels (result in words)” value with plasma cGMP is reported as “increased net cGMP levels”.

Take `CC[C@H](C)[C@@H]1NC(=O)[C@H](CCCNC(=N)N)NC(=O)[C@H](CC(=O)O)NC(=O)[C@H]([C@@H](C)CC)NC(=O)[C@H](CCCNC(=N)N)NC(=O)CNC(=O)CNC(=O)[C@H](Cc2ccccc2)NC(=O)[C@@H](NC(=O)[C@H](CO)NC(=O)[C@H](CO)NC(=O)[C@H](CCCNC(=N)N)NC(=O)CCNC(=O)[C@H](CCCCN)NC(=O)[C@H](CCC(=O)O)NC(=O)CNC(=O)[C@H](CCCCN)NC(=O)[C@H](CCC(=O)O)NC(=O)[C@H](CCCCN)NC(=O)[C@H](CCC(=O)O)NC(=O)[C@H](CCCCN)NC(=O)[C@H](CCC(=O)O)NC(=O)CC[C@H](NC(=O)CCCCCCCCCCCCCCCCCCC(=O)O)C(=O)O)CSCSC[C@@H](C(=O)N2CCC[C@H]2C(=O)N[C@@H](CO)C(=O)N[C@@H](Cc2ccccc2)C(=O)N[C@@H](CCCNC(=N)N)C(=O)N[C@@H](Cc2c[nH]cn2)C(=O)NCC(=O)NCC(=O)N2CCC[C@H]2C(=O)N[C@@H](CO)C(=O)N[C@@H](CO)C(=O)NCC(=O)N[C@@H](C)C(=O)N2CCC[C@H]2C(=O)N2CCC[C@H]2C(=O)N2CCC[C@H]2C(=O)N[C@@H](CO)C(N)=O)NC(=O)CNC(=O)[C@H](CC(C)C)NC(=O)CNC(=O)[C@H](CO)NC(=O)[C@H](Cc2ccc(O)cc2)NC(=O)[C@H](Cc2c[nH]cn2)NC(=O)CNC1=O` [Example 56]: in data set [1], the CL/F is 0.187 mL/min/kg and the half-life was 36 h. In addition, in the data set with plasma cGMP, the “Net cGMP (nM) Change from Baseline 0.083 h” value is -2.8 nM, the “Net cGMP (nM) Change from Baseline 0.25 h” value was -0.66 nM, the “Net cGMP (nM) Change from Baseline 0.5 h” value was -0.65 nM and the “Net cGMP (nM) Change from Baseline 1 h” value is -0.51 nM. For the same compound, in the data set on plasma cGMP, the “Net cGMP (nM) Change from Baseline 2 h” value was -1.82 nM, the “Net cGMP (nM) Change from Baseline 4 h” value was 1.83 nM, the “Net cGMP (nM) Change from Baseline 8 h” value came out at 10.57 nM and the “Net cGMP (nM) Change from Baseline 12 h” value is listed as 12.11 nM. Also, in the data set on plasma cGMP, the “Net cGMP (nM) Change from Baseline 24 h” value was found to be 17.03 nM, the “Net cGMP (nM) Change from Baseline 36 h” value turned out to be 16.59 nM, the “Net cGMP (nM) Change from Baseline 48 h” value was found to be 11.66 nM and the “Net cGMP (nM) Change from Baseline 72 h” value came to 11.45 nM. Besides, in the data set on plasma cGMP, the “Net cGMP (nM) Change from Baseline 96 h” value is listed as 9.32 nM, the “Net cGMP (nM) Change from Baseline 120 h” value is listed as 9.31 nM, the “Net cGMP (nM) Change from Baseline 144 h” value turned out to be 7.36 nM and the “Net cGMP (nM) Change from Baseline 168 h” value was found to be 1.99 nM. Besides, the “net cGMP levels (result in words)” value in the data set with plasma cGMP was “increased net cGMP levels”.
